Reference: patent US12319726B2, “Method for treating CD40-mediated diseases” (CASE WESTERN RESERVE UNIVERSITY, priority 2008, dated 2025)
Where a SMILES comes first, the peptide text is derived from it. [ ]: non-standard residue; d: D form.

Legend:
[1] = tested on: human retinal endothelial cells; assay: ICAM-1 upregulation in human retinal endothelial cells (flow cytometry); assay type: cell-based; settings: 1 μM, 24 h
Method: FIG. 18 illustrates graphs showing ri CD40-TRAF2,3 blocking peptide inhibits CD40-driven upregulation of ICAM-1. Human retinal endothelial cells were treated with ri control peptide (Ctr P) or ri CD40-TRAF2,3 blocking peptide (T2,3 BP; both at 1 μM) followed by stimulation with CD154 or TNF-α. Expression of ICAM-1 was assessed by flow cytometry at 24 h. Data shown represent Mean±SD. Results are representative of 2 independent experiments. **P<0.01.
Primary human retinal endothelial cells were obtained as described (9) and cultured in complete medium supplemented with endothelial cell growth supplement from bovine pituitary (15 μg/ml; Sigma Chemical, St Louis, MO) and insulin/transferrin/selenium (Sigma Chemical). Cell identity was confirmed by incorporation of acetylated low-density lipoprotein (>90%). Endothelial cells were used between passages 3 to 6. The human Müller cell line MIO M1 (gift from Dr. Gloria Limb; University College London, UK; >95% vimentin^+, CRALBP^+ and GFAP^−) was also used. Endothelial cells were incubated with multimeric human CD154 to induce CD40 stimulation (obtained from Dr. Richard Kornbluth, Multimeric Biotherapeutics Inc., La Jolla, CA) or with a non-functional CD154 mutant (T147N) as control.
Cells were incubated with anti-ICAM-1 mAb (eBiosciences). After fixation with 1% paraformaldehyde, cells were analyzed using an LSR II (Becton Dickinson). […]

[2] = tested on: CD40-TRAF2,3 signaling; assay: NF-κB luciferase reporter assay in mHEVc expressing hmCD40 ΔT6 (signals through the TRAF2,3 binding site); assay type: cell-based, mouse; settings: 1 μM, 3 hr pre-incubation, hmCD40 ΔT6 cells; P<0.01
Method: Mouse endothelial cells (mHEVc) that express an NF-κB response element that drives transcription of a luciferase reporter plus either hmCD40 ΔT2,3 or hmCD40 ΔT6 were pre-incubated with ri control peptide (Ctr P) or ri CD40-TRAF2,3 blocking peptide (T2,3 BP; both at 1 μM) or medium alone followed by stimulation with human CD154. Data are expressed as fold-increase in normalized luciferase activity in cells stimulated with CD154 compared to cells treated with respective peptide in the absence of CD154. Data shown represent Mean±SD. Results are representative of 2 independent experiments. **P<0.01.
Peptides were tested as described using the mouse endothelial cells mHEVc that expresses a chimera of the extracellular domain of human CD40 and intracytoplasmic domain of mouse CD40 (hmCD40) with either a mutation that prevents recruitment of TRAF2,3 (hmCD40 ΔT2,3) or TRAF6 (hmCD40 ΔT6). These cells were transfected with pGL4.32luc2P/NF-κB-RE/Hygro vector (Promega Corporation, Madison, WI) encoding an NF-κB response element that drives the luciferase reporter gene luc2P (Photinus pyralis). Cells were pre-incubated with peptides for 3 hr. followed by stimulation with human CD154. Luciferase activity was assessed using a Steady-Glo luciferase assay system (Promega Corporation) and a luminometer. The effects of peptides on cell viability were examined using alamarBlue cell viability assay. […]

## CC(C)C[C@@H](NC(=O)[C@@H](Cc1c[nH]cn1)NC(=O)CNC(=O)[C@@H](Cc1ccc(O)cc1)NC(=O)CNC(=O)[C@@H](CCCNC(=N)N)NC(=O)[C@@H](CCCCN)NC(=O)[C@@H](CCCCN)NC(=O)[C@@H](CCCNC(=N)N)NC(=O)[C@@H](CCCNC(=N)N)NC(=O)[C@@H](CCC(N)=O)NC(=O)[C@@H](CCCNC(=N)N)NC(=O)[C@@H](CCCNC(=N)N)NC(=O)[C@H](N)CCCNC(=N)N)C(=O)N[C@@H](C(=O)N[C@H](CCC(=O)O)C(=O)N[C@H](CCC(N)=O)C(=O)N[C@@H](C(=O)N[C@H](Cc1c[nH]cn1)C(=O)N[C@H](C)C(=O)N[C@H](C)C(=O)N[C@@H](C(=O)N[C@H](CC(N)=O)C(=O)O)[C@H](C)O)C(C)C)[C@H](C)O [ri CD40-TRAF2,3 blocking peptide, NH2-rrrqrrkkrgy ghlteqvhaatn-OH] (H-[dR][dR][dR][dQ][dR][dR][dK][dK][dR]G[dY]G[dH][dL][dT][dE][dQ][dV][dH][dA][dA][dT][dN]-OH)
[1]; CD154 stimulation, P<0.01
  upregulation of ICAM-1 in response to CD154: impaired upregulation of ICAM-1
[1]; TNF-α stimulation
  TNF-α-induced upregulation of ICAM-1: no effect
[2]
  NF-κB activity (luciferase) after human CD154: inhibited NF-κB activity
